This is an account of results in PubChem BioAssay AID1996.

In brackets after ≈: the same amount, converted by molar mass.

For this series the following is noted: buffer; pH 7.4; 200.0 µM.
Consider `CCN(CC)CCNC(=O)C(Oc1ccccc1)Oc1ccccc1`, for which the kinetic solubility was determined as 45.8 µg/mL (≈ 134 µM).

On to `O=S(=O)(Nc1ccccc1Br)c1cccs1`, for which the kinetic solubility was > 47.7 µg/mL.

Consider `CC(NC(=O)COC(=O)COc1ccc(Cl)cc1)c1ccccc1` (stereo not given), for which the solubility (kinetic) was found to be 40.2 µg/mL (≈ 116 µM).

As for `CC(=O)Nc1ccc(OCC(=O)NCCc2ccccc2)cc1`, the solubility (kinetic) is > 46.9 µg/mL.

`COc1ccccc1Nc1c2c(nc3ccc(N)cc13)CCCC2` showed a solubility (kinetic) of 47.2 µg/mL (≈ 148 µM).

`Cn1ccc(/C=N/N=C2/NC(=O)CS2)n1`: the kinetic solubility is > 33.5 µg/mL.

`O=C(NC1CCCCCC1)c1cc2ccccc2oc1=O` came in with a solubility (kinetic) of 3.4 µg/mL (≈ 11.9 µM).

The compound `Cc1nc2ccc([N+](=O)[O-])cc2c(=O)n1Cc1cccc(F)c1` had a kinetic solubility of 9.1 µg/mL (≈ 29 µM).

`CCCSC1C(C)=C(C)C(=O)N1Cc1ccccc1` (stereo not given) gave a kinetic solubility of 35.5 µg/mL (≈ 129 µM).

In the case of `Cc1ccc(N2CC(C(=O)Nc3cc(C)on3)CC2=O)c(C)c1` (stereo not given), the solubility (kinetic) is > 47 µg/mL.

On to `O=C(OCc1nc2ccccc2s1)c1ccc([N+](=O)[O-])o1`, for which the solubility (kinetic) was 1.1 µg/mL (≈ 3.62 µM).

Turning to `Cc1c(C=O)c2ccccc2n1CC(=O)O`, the solubility (kinetic) is > 32.6 µg/mL.

With `CCC(=O)N1c2ccccc2C(N(C(=O)CC)c2ccccc2)CC1C` (stereo not given), the solubility (kinetic) was > 52.6 µg/mL.

With `O=[N+]([O-])c1ccc2oc(-c3ccccc3)nc2c1`, the kinetic solubility was < 0.3 µg/mL.

For `CC(=O)c1cccc(NC(=O)COC(=O)Cn2cnc3ccccc32)c1`, the solubility (kinetic) is > 52.7 µg/mL.

In turn, `CC(=O)Nc1ccc(NC(=O)Nc2ccccc2)cc1` came in with a kinetic solubility of 6.3 µg/mL (≈ 23.4 µM).

In turn, `Cc1ccc(S(=O)(=O)NCc2csc(-c3cccs3)n2)cc1` gave a kinetic solubility of 0.7 µg/mL (≈ 2 µM).

Turning to `Cc1cccc(NC(=O)CN2CCOCC2)c1C`, the kinetic solubility is > 37.2 µg/mL.

Consider `O=[N+]([O-])c1cc2c(cc1C=Nc1ccccc1)OCO2`, for which the kinetic solubility is 38.1 µg/mL (≈ 141 µM).

Turning to `CC(C)(Cc1ccc(O)cc1)NC(=O)c1ccccc1`, the kinetic solubility is 36.7 µg/mL (≈ 136 µM).

Consider `Cc1ccc(OCC(=O)Nc2ccc3c(c2)C(=O)NC3=O)cc1`, for which the solubility (kinetic) is 2.4 µg/mL (≈ 7.73 µM).

The compound `COc1ccc(NC(=O)C(C)SCc2ccccc2)cc1` (stereo not given) gave a kinetic solubility of 40.9 µg/mL (≈ 136 µM).

As for `NC(=O)c1ccsc1NC(=O)CN1C(=O)NC2(CCCC2)C1=O`, the solubility (kinetic) is > 50.5 µg/mL.

`Brc1cnc2ccccc2c1N1CCCCC1` came in with a solubility (kinetic) of 1.2 µg/mL (≈ 4.12 µM).

On to `Cc1ccc(OCCn2cc(C=O)c3ccccc32)cc1`, for which the solubility (kinetic) worked out at 5.3 µg/mL (≈ 19 µM). Against the preceding compound, the solubility kinetic is about 4.4-fold higher.

In turn, `O=Cc1cccc(OC(=O)Nc2ccccc2)c1` displayed a solubility (kinetic) of 29.2 µg/mL (≈ 121 µM).

For the compound `CCc1cn([C@H]2C[C@H](O)[C@@H](CO)O2)c(=O)[nH]c1=O`, the kinetic solubility is > 38.4 µg/mL.

`COc1ccc(C(=O)N(C)Cc2ccccc2F)cc1S(=O)(=O)N1CCCC1`: the kinetic solubility was > 61 µg/mL.

Turning to `Cc1ccc(NC(=O)N2CCCc3ccccc32)cc1`, the kinetic solubility was 36.2 µg/mL (≈ 136 µM).

In turn, `CCOC(=O)c1ccc(S(=O)(=O)Nc2cc(S(=O)(=O)N3CCOCC3)ccc2O)cc1` came in with a kinetic solubility of 69.5 µg/mL (≈ 148 µM).

For the compound `COc1ccccc1CC(=O)N1CCN(S(=O)(=O)c2ccccc2F)CC1`, the kinetic solubility was > 58.9 µg/mL.

As for `O=C(OCC(=O)N1CCOCC1)c1ccccc1Br`, the kinetic solubility is > 49.2 µg/mL.

In turn, `COc1ccc(OCC(=O)Nc2ccccc2N2CCN(C)CC2)cc1` gave a kinetic solubility of 49.5 µg/mL (≈ 139 µM).

The compound `Cc1ccc(NC(=O)c2cccs2)cc1NC(=O)c1ccc(F)cc1` came in with a kinetic solubility of 2 µg/mL (≈ 5.64 µM).

`S=C(NCc1ccccc1)Nc1nccs1`: the kinetic solubility turned out to be 3 µg/mL (≈ 12 µM). This solubility kinetic is about 1.5-fold higher than that of the compound before.

In the case of `NC(=O)COC(=O)c1ccccc1OCc1ccc(Cl)cc1`, the kinetic solubility came out at 7.2 µg/mL (≈ 22.5 µM).

As to `CCN(CC)S(=O)(=O)c1ccc2nc(CCl)[nH]c2c1`, the solubility (kinetic) is > 45.3 µg/mL.

Take `Cc1cc(NS(=O)(=O)c2ccc(NC(=O)c3ccc([N+](=O)[O-])s3)cc2)nc(C)n1`: the solubility (kinetic) is > 65 µg/mL.

`COc1cccc(/C=C/C(=O)NCc2ccc3c(c2)OCO3)c1`: the solubility (kinetic) amounted to 11.4 µg/mL (≈ 36.6 µM).

For the compound `CCOc1ccccc1NC(=O)c1ccc2nc[nH]c2c1`, the solubility (kinetic) was > 42.2 µg/mL.

`Cc1ccccc1Sc1ccc(N)cn1` yielded a solubility (kinetic) of 31.4 µg/mL (≈ 145 µM).

With `O=C(CCC(=O)N1CCCC1)N1CCCC1`, the kinetic solubility is > 33.6 µg/mL.

In the case of `CC(CCc1ccccc1)NC(=O)CNc1cccc([N+](=O)[O-])c1` (stereo not given), the kinetic solubility was > 49.1 µg/mL.

On to `COC(=O)c1ccc(COC(=O)CNC(=O)c2cccs2)cc1`, for which the solubility (kinetic) was > 50 µg/mL.

For the compound `S=C1NCN(C2CCCCC2)CN1CCc1ccccc1`, the solubility (kinetic) is 16.1 µg/mL (≈ 53.1 µM).

Compound `COCCSc1ccccc1C(=O)Nc1ccc(Br)cc1` displayed a solubility (kinetic) of 43.1 µg/mL (≈ 118 µM).

Compound `CCCCNC(=S)Nc1ccc(C(F)(F)F)cc1` registered a kinetic solubility of 15.7 µg/mL (≈ 56.8 µM).

Compound `COC(=O)Cn1cc(C=C2C(=O)NC(=O)NC2=O)c2ccccc21` yielded a solubility (kinetic) of 8.6 µg/mL (≈ 26.3 µM). Compared with the last compound, the solubility kinetic is about 1.8-fold lower.

As to `CC(C)Cc1ccc(C(C)C(N)=Nc2ccc(O)cc2)cc1.Cl` (stereo not given), the kinetic solubility is > 49.9 µg/mL.

Regarding `CC1(C)c2ccccc2-n2c1cc1oc(=O)cc(O)c1c2=O`, the kinetic solubility was 35.6 µg/mL (≈ 121 µM).

For `CCOC(=O)c1ccc(N=Cc2c(O)c3ccccc3oc2=O)cc1`, the kinetic solubility worked out at 4.7 µg/mL (≈ 13.9 µM).

On to `CS(=O)(=O)N1CCC(C(=O)NCc2ccc(Cl)cc2)CC1`, for which the kinetic solubility is > 49.6 µg/mL.

Compound `COc1ccc(OC(C)C(=O)NC2CCCCCCC2)cc1` (stereo not given) displayed a kinetic solubility of 45.1 µg/mL (≈ 148 µM).

Take `Cc1cc(-c2onc(C)c2C(=O)Nc2ccc(C(F)(F)F)cc2)no1`: the solubility (kinetic) was < 0.3 µg/mL.

`O=C(COC(=O)c1ccc2ncsc2c1)Nc1ccccc1Cl` gave a kinetic solubility of 4 µg/mL (≈ 11.5 µM).

The compound `CCCc1cc(=O)[nH]c(SCC(=O)N2c3ccccc3NC(=O)C2(C)C)n1` had a solubility (kinetic) of 57.4 µg/mL (≈ 149 µM).

On to `COc1nc(N)nc(N)c1NS(=O)(=O)c1ccc(C)cc1`, for which the solubility (kinetic) was > 46.4 µg/mL.

Compound `CC(OC(=O)c1ccc2noc(-c3ccccc3)c2c1)C(N)=O` (stereo not given) showed a kinetic solubility of 46.3 µg/mL (≈ 149 µM).

As to `COC(=O)c1ccc(CNC(=O)COC(=O)c2cc(Cl)ccc2O)cc1`, the kinetic solubility was found to be 7.1 µg/mL (≈ 18.8 µM).

Turning to `Cc1nc(SCC(=O)NC2CCCC2)c2c(C)c(C)sc2n1`, the solubility (kinetic) turned out to be 0.5 µg/mL (≈ 1.49 µM). Against the preceding compound, the solubility kinetic is about 14-fold lower.

`Cc1ccc(SCc2ccc(C(=O)Nc3nccs3)o2)cc1` displayed a solubility (kinetic) of 2.2 µg/mL (≈ 6.66 µM).

Consider `Cc1ccc2nsnc2c1S(=O)(=O)Nc1ccccc1C(=O)O`, for which the solubility (kinetic) was > 52.4 µg/mL.

Take `COc1cc(-c2nc3ccccn3c2N)ccc1O`: the solubility (kinetic) is > 38.3 µg/mL.

As for `OCCCNc1nc(-c2ccccc2)c2cc(Cl)ccc2n1`, the solubility (kinetic) is 21.5 µg/mL (≈ 68.5 µM).

On to `CC(=O)N(c1ccc(Cl)cc1)c1cn(C(C)=O)c2ccccc12`, for which the solubility (kinetic) is > 49 µg/mL.

Compound `COc1ccc(OCCC(=O)OCC(=O)NC2CCCCC2)cc1` registered a solubility (kinetic) of 37 µg/mL (≈ 110 µM).

Turning to `c1ccc(-c2nc3ccccc3[nH]2)cc1`, the solubility (kinetic) came out at 21.9 µg/mL (≈ 113 µM).

As for `Cc1c(Cl)cccc1NC(=O)Cc1cccs1`, the solubility (kinetic) was 11.1 µg/mL (≈ 41.8 µM).

The compound `CCOC(=O)CSc1nc(C)c2cccc(C)c2n1` came in with a solubility (kinetic) of 30.6 µg/mL (≈ 111 µM).

As to `Cc1c(C)n(CCCN(C)C)c2ncnc(NCc3ccccc3)c12`, the solubility (kinetic) is > 50.6 µg/mL.

On to `O=C1OCCC1Sc1nnc(-c2ccco2)n1-c1ccccc1` (stereo not given), for which the solubility (kinetic) was > 49.1 µg/mL.

In turn, `O=C(c1cccc(Cl)c1)N1CCN(Cc2ccccc2)CC1` returned a kinetic solubility of 47.1 µg/mL (≈ 150 µM).

In the case of `O=S(=O)(Nc1ccc(Br)cc1)c1cccc2nonc12`, the solubility (kinetic) was > 53.1 µg/mL.

`CCC(=O)NC1CC2CCCC(C1)N2Cc1ccc(C)cc1` (stereo not given): the kinetic solubility was > 45.1 µg/mL.

On to `O=C(Nc1c(-c2ccccc2)nc2ccccn12)c1ccccc1F`, for which the kinetic solubility was > 49.7 µg/mL.

As usually defined, the kinetic solubility is the concentration staying in solution when a stock, usually in DMSO, is diluted into the medium.
